What was measured:
[1] = Serum kinetics and absolute bioavailability of ^14 C-labelled CDP-choline and "ASONIC" after i.v. and oral administration in Cynomolgus monkeys; format: in vivo, Cynomolgus monkey; details: for Plasmatic concentration: average and S.D. of 2 monkeys, 400 mg/kg per os; for Absolute bioavailability F: oral
Method: From the end of the curves serum concentration/time, it was possible to calculate the constant of the apparent elimination speed from the organism as well as the relative half-life. These values were utilized in calculating the AUC T30 hours →T.infin. for the total of the curves concentration/time in the same animal. The AUC To →T30 hrs was calculated by means of the trapezium methods. […] For each dosage, a randomized cross-over procedure was used. Seriated blood samples were collected until 30 hours after each administration. From the single curves concentration/time it was possible to calculate the AUC To →T30 hrs. After each administration, including the intravenous one, urine was collected at the following time intervals: 0-24 hours, 24-48 hours and 48-72 hours.

[2] = oral, compound as such; cited from earlier work

Compound `C[N+](C)(C)CCOP(=O)(O)OP(=O)([O-])OC[C@H]1O[C@@H](n2ccc(N)nc2=O)[C@H](O)[C@@H]1O` [CDP-choline, cytidine diphosphocholine] has a Plasmatic concentration ([1]; 6 hr) of 1496 ± 134 DPM/ml serum, a Plasmatic concentration ([1]; 7 hr) of 2636 ± 107 DPM/ml serum and a Plasmatic concentration ([1]; 8 hr) of 4163 ± 101 DPM/ml serum. It also gave a Plasmatic concentration ([1]; 9 hr) of 4813 ± 513 DPM/ml serum, a Plasmatic concentration ([1]; 24 hr) of 536 ± 122 DPM/ml serum and a Plasmatic concentration ([1]; 30 hr) of 470 ± 98 DPM/ml serum. The Serum concentration ([1]; monkey no. 1, 25 mg/kg i.v., 5') was 8708 DPM/ml, the Serum concentration ([1]; monkey no. 1, 25 mg/kg i.v., 15') was 3169 DPM/ml and the Serum concentration ([1]; monkey no. 1, 25 mg/kg i.v., 30') was 2226 DPM/ml. For the same compound, the Serum concentration ([1]; monkey no. 1, 25 mg/kg i.v., 60') was 1629 DPM/ml, the Serum concentration ([1]; monkey no. 1, 25 mg/kg i.v., 2 hr) was 2165 DPM/ml and the Serum concentration ([1]; monkey no. 1, 25 mg/kg i.v., 4 hr) was 2760 DPM/ml. It also gave a Serum concentration ([1]; monkey no. 1, 25 mg/kg i.v., 7 hr) of 3120 DPM/ml, a Serum concentration ([1]; monkey no. 1, 25 mg/kg i.v., 24 hr) of 1812 DPM/ml and a Serum concentration ([1]; monkey no. 1, 25 mg/kg i.v., 30 hr) of 1749 DPM/ml. The Serum concentration ([1]; monkey no. 1, 200 mg/kg per os, 30') was 45 DPM/ml, the Serum concentration ([1]; monkey no. 1, 200 mg/kg per os, 45') was 53 DPM/ml and the Serum concentration ([1]; monkey no. 1, 200 mg/kg per os, 60') was 88 DPM/ml. The Serum concentration ([1]; monkey no. 1, 200 mg/kg per os, 7 hr) was 852 DPM/ml, the Serum concentration ([1]; monkey no. 1, 200 mg/kg per os, 9 hr) was 743 DPM/ml and the Serum concentration ([1]; monkey no. 1, 200 mg/kg per os, 24 hr) was 339 DPM/ml. The Serum concentration ([1]; monkey no. 1, 400 mg/kg per os, 30') was 35 DPM/ml, the Serum concentration ([1]; monkey no. 1, 400 mg/kg per os, 60') was 52 DPM/ml and the Serum concentration ([1]; monkey no. 1, 400 mg/kg per os, 90') was 29 DPM/ml. The Serum concentration ([1]; monkey no. 1, 400 mg/kg per os, 2 hr) was 75 DPM/ml, the Serum concentration ([1]; monkey no. 1, 400 mg/kg per os, 3 hr) was 187 DPM/ml and the Serum concentration ([1]; monkey no. 1, 400 mg/kg per os, 4 hr) was 401 DPM/ml. The Serum concentration ([1]; monkey no. 1, 400 mg/kg per os, 6 hr) was 1590 DPM/ml, the Serum concentration ([1]; monkey no. 1, 400 mg/kg per os, 7 hr) was 2712 DPM/ml and the Serum concentration ([1]; monkey no. 1, 400 mg/kg per os, 8 hr) was 4092 DPM/ml. For the same compound, the Serum concentration ([1]; monkey no. 1, 400 mg/kg per os, 9 hr) was 5175 DPM/ml, the Serum concentration ([1]; monkey no. 1, 400 mg/kg per os, 24 hr) was 622 DPM/ml and the Serum concentration ([1]; monkey no. 1, 400 mg/kg per os, 30 hr) was 540 DPM/ml. It also gave a Serum concentration ([1]; monkey no. 2, 25 mg/kg i.v., 5') of 12414 DPM/ml, a Serum concentration ([1]; monkey no. 2, 25 mg/kg i.v., 15') of 5007 DPM/ml and a Serum concentration ([1]; monkey no. 2, 25 mg/kg i.v., 30') of 3467 DPM/ml. It also gave a Serum concentration ([1]; monkey no. 2, 25 mg/kg i.v., 60') of 2625 DPM/ml, a Serum concentration ([1]; monkey no. 2, 25 mg/kg i.v., 2 hr) of 2630 DPM/ml and a Serum concentration ([1]; monkey no. 2, 25 mg/kg i.v., 4 hr) of 3369 DPM/ml. For the same compound, the Serum concentration ([1]; monkey no. 2, 25 mg/kg i.v., 7 hr) was 4013 DPM/ml, the Serum concentration ([1]; monkey no. 2, 25 mg/kg i.v., 24 hr) was 2258 DPM/ml and the Serum concentration ([1]; monkey no. 2, 25 mg/kg i.v., 30 hr) was 2145 DPM/ml. It also gave a Serum concentration ([1]; monkey no. 2, 200 mg/kg per os, 15') of 61 DPM/ml, a Serum concentration ([1]; monkey no. 2, 200 mg/kg per os, 45') of 59 DPM/ml and a Serum concentration ([1]; monkey no. 2, 200 mg/kg per os, 60') of 94 DPM/ml. For the same compound, the Serum concentration ([1]; monkey no. 2, 200 mg/kg per os, 7 hr) was 696 DPM/ml, the Serum concentration ([1]; monkey no. 2, 200 mg/kg per os, 9 hr) was 595 DPM/ml and the Serum concentration ([1]; monkey no. 2, 200 mg/kg per os, 24 hr) was 417 DPM/ml. For the same compound, the Serum concentration ([1]; monkey no. 2, 200 mg/kg per os, 30 hr) was 303 DPM/ml, the Serum concentration ([1]; monkey no. 2, 400 mg/kg per os, 60') was 69 DPM/ml and the Serum concentration ([1]; monkey no. 2, 400 mg/kg per os, 90') was 52 DPM/ml. The Serum concentration ([1]; monkey no. 2, 400 mg/kg per os, 2 hr) was 81 DPM/ml, the Serum concentration ([1]; monkey no. 2, 400 mg/kg per os, 3 hr) was 174 DPM/ml and the Serum concentration ([1]; monkey no. 2, 400 mg/kg per os, 4 hr) was 495 DPM/ml. The Serum concentration ([1]; monkey no. 2, 400 mg/kg per os, 6 hr) was 1.401 DPM/ml, the Serum concentration ([1]; monkey no. 2, 400 mg/kg per os, 7 hr) was 2.560 DPM/ml and the Serum concentration ([1]; monkey no. 2, 400 mg/kg per os, 8 hr) was 4.235 DPM/ml. It also gave a Serum concentration ([1]; monkey no. 2, 400 mg/kg per os, 9 hr) of 4.450 DPM/ml, a Serum concentration ([1]; monkey no. 2, 400 mg/kg per os, 24 hr) of 449 DPM/ml and a Serum concentration ([1]; monkey no. 2, 400 mg/kg per os, 30 hr) of 401 DPM/ml. The “Absolute bioavailability” value ([1]; monkeys, oral control dosages) was “much lower”, the “Absolute bioavailability F” value ([1]; monkeys, 200 mg/kg as CDP-choline) was 0.2143 and the “Absolute bioavailability F” value ([1]; monkeys, 400 mg/kg as CDP-choline) was 0.6174. The Absorbability [2] was “poor absorbability”.

Reference: patent US4386077A (Made Italiana s.r.l, priority 1981, dated 1983)
